Patent publication US7629365B2 (Glaxo Group Limited, priority 2006, dated 2009)
In brackets after ≈: the same amount, converted by molar mass. Like-named read-outs stand apart in the source and are kept apart here.

Test: Compound solubility determination in FaSSIF and FeSSIF
Type: physicochemical
Settings: thermodynamic from solid
Description: Compound Solubility Determination
An amount of 3 mg solid compound with LC-MS purity ≧95% was required. This amount was split between 3 different glass vials (1.8 ml volume each), placing 1 mg compound into each one.
Organic solvents of HPLC grade were used. Ultra pure water (Milli-Q grade) was used. Buffers were prepared with ultra pure water and filtered using 0.45μ nylon filters. The compositions of each solvent employed in this assay are described below (part III).
2. Determination of Equilibrium Solubility (Assuming Chemical Stability in the Desired Solvent is Not a Problem).
For each of the three vial samples prepared as described above, in which the amount of compound was totally dissolved, the following procedure was subsequently carried out: • a) A small amount (approx. 0.1 mg) of additional solid compound was added to the vial to maintain an excess of the compound in the mixture in the form of undissolved solid. • b) The samples were magnetically stirred for 24 hr. If required, additional solid compound (0.1 mg) was added to maintain excess of it and then the samples were stirred again. • c) Then the samples were filtered (Millipore Milex filters nylon 0.2 um) and three aliquots were taken (one from each of the three vials) and analysed by LC-MS. • d) The pH of the final solution in each sample was measured with a pH-meter (WTW pH330i and a pH-electrode Sentix 41). 3. LC-MS Assay for Analytical Quantification
All filtered aliquots were analysed by LC-MS. The analysis was carried out with a Luna 5 μC18(2) column 4.6×150 mm, using a HP1100HPLC instrument interfaced with a Waters ZMD-2000 MS spectrometer. The concentration of the final sample as prepared above was calculated from that of a reference calibration curve obtained from serial dilutions of a 2 mM solution of the compound under investigation in DMSO (Aldrich cat. ref.: 27685-5) stock solution.
The analysis of all LC-MS data was performed with MassLynx 3.4 software. Statistical and graphic analysis of data was performed using Microsoft Excel. The concentration (μM) and solubility (μg/ml) for each compound was calculated using the peak areas from the sample and those from the calibration curve.
• A) FaSSIF is a solvent which simulates the Fasted State of the Intestinal Fluid. (FaSSIF: Fasted State Simulated Intestinal Fluid).
FaSSIF Preparation Procedure. 1. Preparation of 1 L of pH 6.8 Buffer Solution • 1.a. 3.947 g potassium phosphate and 16.401 g potassium chloride were dissolved in approx. 900 ml of water. • 1.b. The pH was adjusted to 6.8 by slow addition of 0.1 N sodium hydroxide (Scharlau SO 0441010C) under magnetic stirring. • 1.c The mixture was diluted to a volume of 1000 ml with water. 2. Preparation of 100 ml of FaSSIF • 2.a. 269 mg NaTaurochol. (Aldrich T-4009) was dissolved in approx. 80 ml of pH 6.8 buffer. • 2.b. 114 mg lecithin (Sigma P-7318) was dissolved in this NaTaurochol/buffer solution (this was carried out with a nitrogen filled glove bag). • 2.c. The resulting mixture was diluted to a volume of 100 ml with further pH 6.8 buffer • 2.d. The final solution was covered with a layer of nitrogen or alternative inert gas. The bottle was sealed with parafilm and stored at 4° C. • B) FeSSIF is a solvent which simulates the Fed State of the Intestinal Fluid. (FeSSIF: Fed State Simulated Intestinal Fluid).
FeSSIF Preparation Procedure. 1. Prepare 1 L of pH 5 Buffer Solution • 1.a. 15.2 g potassium chloride and 8.25 ml glacial acetic acid were dissolved in approx. 900 ml of water. • 1.b. The pH was adjusted to 5 by slow addition of NaOH 0.1N (Scharlau SO 0441010C) under magnetic stirring. • 1.c The mixture was diluted to a volume of 1000 ml with water. 2. Preparation of 100 mL of FeSSIF • 2.a. 806.5 mg NaTaurochol (Aldrich T-4009) was dissolved in 80 ml of pH 5 buffer. • 2.b. 288 mg lecithin (Sigma P-7318) was dissolved in this NaTaurochol/buffer solution (carried out with a nitrogen filled glove bag). • 2.c. […]

[1] = FaSSIF (Fasted State Simulated Intestinal Fluid), pH 6.8 buffer, read-out: Solubility in FaSSIF
[2] = FeSSIF (Fed State Simulated Intestinal Fluid), pH 5.0 buffer, read-out: Solubility in FeSSIF

| Structure (SMILES) | solubility at 24 h [1] [µg/mL] | solubility at 24 h [2] [µg/mL] |
| --- | --- | --- |
| Cc1[nH]c(CO)c(Cl)c(=O)c1-c1ccc(Oc2ccc(OC(F)(F)F)cc2)cc1 [Example 3, 3-chloro-2-(hydroxymethyl)-6-methyl-5-[4-({4-[(trifluoromethyl)oxy]phenyl}oxy)phenyl]-4(1H)-pyridinone] | 5 to 10 (≈ 11.7 to 23.5 µM) | 10 to 50 (≈ 23.5 to 117 µM) |
| Cc1[nH]c(CO)c(-c2ccc(Oc3ccc(OC(F)(F)F)cc3)cc2)c(=O)c1Cl [Example 1, 3-Chloro-6-(hydroxymethyl)-2-methyl-5-[4-({4-[(trifluoromethyl)oxy]phenyl}oxy)phenyl]-4(1H)-pyridinone] | 1 to 5 (≈ 2.35 to 11.7 µM) | 5 to 10 (≈ 11.7 to 23.5 µM) |
| Cc1[nH]c(CO)c(Cl)c(=O)c1-c1ccc(Oc2cccc(C(F)(F)F)c2)cc1 [Example 4, 3-chloro-2-(hydroxymethyl)-6-methyl-5-(4-{[3-(trifluoromethyl)phenyl]oxy}phenyl)-4(1H)-pyridinone] | 1 to 5 (≈ 2.44 to 12.2 µM) | 10 to 50 (≈ 24.4 to 122 µM) |
| Cc1[nH]c(CO)c(-c2ccc(Oc3cccc(C(F)(F)F)c3)cc2)c(=O)c1Cl [Example 2] | 1 to 5 (≈ 2.44 to 12.2 µM) | 1 to 5 (≈ 2.44 to 12.2 µM) |

The remaining lines, values ahead:

| solubility at 24 h [1] [µg/mL] | solubility at 24 h [2] [µg/mL] | Structure (SMILES) |
| --- | --- | --- |
| 10 to 50 (≈ 22 to 110 µM) | 10 to 50 (≈ 22 to 110 µM) | Cc1[nH]c(CCCO)c(-c2ccc(Oc3ccc(OC(F)(F)F)cc3)cc2)c(=O)c1Cl [Example 8, 3-chloro-6-(3-hydroxypropyl)-2-methyl-5-[4-({4-[(trifluoromethyl)oxy]phenyl}oxy)phenyl]-4(1H)-pyridinone] |
| 5 to 10 (≈ 11 to 22.1 µM) | 10 to 50 (≈ 22.1 to 110 µM) | CON=Cc1[nH]c(C)c(Cl)c(=O)c1-c1ccc(Oc2ccc(OC(F)(F)F)cc2)cc1 (single isomer, unassigned) [Example 6, 5-Chloro-6-methyl-4-oxo-3-[4-({4-[(trifluoromethyl)oxy]phenyl}oxy)phenyl]-1,4-dihydro-2-pyridinecarbaldehyde-O-methyloxime] |
| 1 to 5 (≈ 2.28 to 11.4 µM) | 5 to 10 (≈ 11.4 to 22.8 µM) | Cc1[nH]c(C=NO)c(Cl)c(=O)c1-c1ccc(Oc2ccc(OC(F)(F)F)cc2)cc1 (single isomer, unassigned) [Example 7, 3-chloro-6-methyl-4-oxo-5-[4-({4-[(trifluoromethyl)oxy]phenyl}oxy)phenyl]-1,4-dihydro-2-pyridinecarbaldehyde oxime] |
| 5 to 10 (≈ 11.4 to 22.8 µM) | 10 to 50 (≈ 22.8 to 114 µM) | Cc1[nH]c(/C=N/O)c(-c2ccc(Oc3ccc(OC(F)(F)F)cc3)cc2)c(=O)c1Cl [Example 5, 5-Chloro-6-methyl-4-oxo-3-[4-({4-[(trifluoromethyl)oxy]phenyl}oxy)phenyl]-1,4-dihydro-2-pyridinecarbaldehyde oxime] |
